One data set has as its system gastric lesions. The experiment in a line: HCl-ethanol-induced gastric lesions in rats (cytoprotective effect). Format: in vivo, Male Sprague-Dawley rats. Particulars: Rattus norvegicus, po; for inhibition in vivo at 10 mg/kg: 10 mg/kg p.o. in 1% CMC, 30 minutes before 150 mM HCl-60% ethanol, 3 rats per group, lesions measured 1 hour later, read-out: Inhibition (inhibitory rate of ulcer length vs control); for ED50: 30 minutes before HCl-ethanol. The protocol:
Male Sprague-Dawley rats (body weight: 220-240 g, 7 weeks) were deprived of food but allowed free access to water for 24 hours prior to the experiments. Each control and experimental group consisted of 3 rats. One hundred and fifty mM HCl-60% ethanol (v/v) was given p.o. in a volume of 1 ml/rat. The animals were sacrificed 1 hour later, and the stomach was removed and inflated by injecting 10 ml of 2% formalin to fix the inner and outer layers of the gastric walls. Subsequently, the stomach was incised along the greater curvature and washed gently with ice-cold saline.
Gastric lesions were identified in the grandular portion. The length of lesions was measured in millimeters (mm) under a dissecting microscope with a square grid (×10), and lesion severity was expressed as the total length of lesions per stomach.
Test compound (I) (10 mg/kg), suspended in 1% carboxymethyl cellulose (CMC), or 1% carboxymethyl cellulose for the control was orally administered 30 minutes before HCl-ethanol administration. The ulcer length of the treated group and the control group were compared and the inhibitory rates were calculated.

Data set [1] can be described thus: Oral acute toxicity (LD50) in rats. Conditions: rat, in vivo, 0.3% CMC-Na suspension, 72 hours observation, 10 rats per group, Probit method. The protocol:
A 0.3% CMC-Na suspension of a test compound was orally administered to groups of Slc:Wistar/KY rats (male: 90-120 g), each group consisting of 10 rats. […] LD50 values were calculated by the Probit method to be as follows: […]

A further data set deals with ulcer. The experiment in a line: Restraint-immersion stress ulcer in rats (anti-stress ulcer activity). It is filed as in vivo, Male Sprague-Dawley rats. Conditions: 32 mg/kg p.o. in 0.1% MC, 5 minutes before restraint-immersion for 7 hours at 22° C. The protocol:
Male Sprague-Dawley rats (body weight: 230-280 g) were placed under restraint in a stress cage after fasting for 15 hours, and immersed vertically in the water bath kept at 22° C. to the level of the xiphoid of the animal. After restraint-immersion for 7 hours the animals were killed, and the stomach from each animal was fixed with formalin.
Each stomach was opened by cutting along the greater curvature, and ulcer area (mm^2) was measured with a stereoscopic microscope. Ulcer indices of the treated group and the control group were compared, and inhibitory rates were calculated. The tested compound, either 4,6-bis(1-pyrazolyl) pyrimidine (32 mg/kg) suspended in 0.1% methylcellulose (MC) or 0.1% methylcellulose (MC) alone, was orally administered 5 minutes before the restraint-immersion.

A value given as a limit tells only on which side of the number the result lay.

Turning to `COc1cc(C)nc(-n2ccnc2)n1` [Example 7, 2-(1-Imidazolyl)-4-methoxy-6-methylpyrimidine], the inhibition in vivo at 10 mg/kg in the data set with gastric lesions is 82.6%.

`CCOc1cc(C)nc(-n2cccn2)n1` [Example 11, 4-Ethoxy-6-methyl-2-(1-pyrazolyl)pyrimidine]: in the data set with gastric lesions, the inhibition in vivo at 10 mg/kg is 78.3%.

Regarding `COc1cc(-n2ccnc2)ncn1` [Example 16, 4-(1-Imidazolyl)-6-methoxypyrimidine], in the data set on gastric lesions, it took a dose of 5.6 mg/kg to reach the 50% effect level (ED50) and the inhibition in vivo at 10 mg/kg worked out at 91.3%. For the same compound, the median lethal dose (LD50) (commonly the dose at which mortality reaches 50%) at 72 h in data set [1] came out at 400 mg/kg.

With `c1cn(-c2ccnc(-n3ccnc3)n2)cn1` [Example 4, 2,4-Bis(1-imidazolyl)pyrimidine], in the data set with gastric lesions, the inhibition in vivo at 10 mg/kg is 78.2%.

Turning to `COc1cc(-n2cccn2)ncn1` [Example 15, 6-Methoxy-4-(1-pyrazolyl)pyrimidine], the inhibition in vivo at 10 mg/kg in the data set with gastric lesions is 95.6%.

Take `c1cnn(-c2cc(-n3cccn3)ncn2)c1` [Example 1, 4,6-Bis(1-pyrazolyl)pyrimidine]: in the data set on gastric lesions, the ED50 (in general, the dose at which the effect has come halfway, by size or by number of responders) came to 0.72 mg/kg and the inhibition in vivo at 10 mg/kg stood at 95.6%. In addition, the “Inhibition (inhibitory rate of ulcer index vs control)” value in the data set on ulcer is given as 73.6%. In data set [1], this compound came in with an LD50 at 72 h above 3000 mg/kg.

In the case of `COc1cc(C)nc(-n2cccn2)n1` [Example 6, 4-Methoxy-6-methyl-2-(1-pyrazolyl)pyrimidine], the inhibition in vivo at 10 mg/kg with gastric lesions was found to be 87.2%.

As to `CCOc1cc(C)nc(-n2ccnc2)n1` [Example 10, 4-Ethoxy-2-(1-imidazolyl)-6-methylpyrimidine], in the data set on gastric lesions, the inhibition in vivo at 10 mg/kg is 80.7%.

As for `CC(C)Oc1cc(-n2cccn2)ncn1` [Example 17, 6-Isopropoxy-4-(1-pyrazolyl)pyrimidine], the inhibition in vivo at 10 mg/kg in the data set with gastric lesions was found to be 79.8%.

Consider `COc1nc(C)cc(-n2cncn2)n1` [Example 9, 2-Methoxy-6-methyl-4-(1,2,4-triazol-1-yl)pyrimidine], for which the inhibition in vivo at 10 mg/kg with gastric lesions turned out to be 75.7%.

`c1cnn(-c2cc(N3CCCCC3)ncn2)c1` [Example 19, 6-Piperidino-4-(1-pyrazolyl)pyrimidine]: in the data set on gastric lesions, the inhibition in vivo at 10 mg/kg stood at 79.2%.

For the origin of these results see patent US4849424A, “Pyrimidine derivatives” (Nissin Shokuhin Kabushiki Kaisha, priority 1986, dated 1989).
